Key:
hTLR8 = biological target: T1, hTLR8 (Homo sapiens, UniProt Q9NR97); test: Human TLR8 Reporter Assay; format: cell-based; details: HEK-Blue hTLR8 cells, 16 hours, normalized to tl8-506 (1 μM) and DMSO
T1 construct: host or cells: HEK-Blue hTLR8 cells (HEK293-derived, own knowledge)
T1 sequence (Q9NR97 27-1041): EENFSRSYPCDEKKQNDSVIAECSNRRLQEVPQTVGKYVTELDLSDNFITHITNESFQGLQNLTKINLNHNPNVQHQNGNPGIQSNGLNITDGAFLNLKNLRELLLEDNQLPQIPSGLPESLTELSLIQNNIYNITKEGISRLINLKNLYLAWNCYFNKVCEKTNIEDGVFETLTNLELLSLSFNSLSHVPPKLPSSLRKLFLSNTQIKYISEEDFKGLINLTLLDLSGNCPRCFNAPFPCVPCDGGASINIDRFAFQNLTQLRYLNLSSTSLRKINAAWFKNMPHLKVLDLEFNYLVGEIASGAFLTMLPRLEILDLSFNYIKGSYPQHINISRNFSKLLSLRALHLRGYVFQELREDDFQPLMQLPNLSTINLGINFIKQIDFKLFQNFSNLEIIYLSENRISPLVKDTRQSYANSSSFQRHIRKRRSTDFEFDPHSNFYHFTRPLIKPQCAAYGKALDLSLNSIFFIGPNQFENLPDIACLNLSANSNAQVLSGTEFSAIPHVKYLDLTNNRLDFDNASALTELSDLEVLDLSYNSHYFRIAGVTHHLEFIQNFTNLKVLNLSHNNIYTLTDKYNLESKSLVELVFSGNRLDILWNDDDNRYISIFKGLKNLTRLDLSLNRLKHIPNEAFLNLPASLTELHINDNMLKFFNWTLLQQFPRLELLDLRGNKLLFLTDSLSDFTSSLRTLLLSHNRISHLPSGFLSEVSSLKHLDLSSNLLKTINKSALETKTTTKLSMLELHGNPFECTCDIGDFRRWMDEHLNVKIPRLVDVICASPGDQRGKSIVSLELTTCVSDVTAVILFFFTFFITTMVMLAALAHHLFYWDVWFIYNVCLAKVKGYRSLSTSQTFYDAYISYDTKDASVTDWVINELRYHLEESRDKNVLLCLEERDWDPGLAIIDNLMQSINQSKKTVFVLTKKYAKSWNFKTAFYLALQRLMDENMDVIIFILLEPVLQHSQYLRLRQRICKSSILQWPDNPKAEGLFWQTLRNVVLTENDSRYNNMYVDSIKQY
In short: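 HEK-Blue hTLR8 cells (20,000/well) incubated 16 h at 37 °C with 10-point 3-fold compound dilutions in HEK-Blue Detection medium; reporter read as absorbance at 620 nm. Effects normalized between DMSO and tl8-506 (1 μM); EC50 from 4-parameter fit.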

hTLR7 = biological target: T2, hTLR7 (Homo sapiens, UniProt Q9NYK1); test: Human TLR7 Reporter Assay; format: cell-based; details: HEK-Blue hTLR7 cells, 16 hours, normalized to CL097 (6 μM) and DMSO
T2 construct: host or cells: HEK-Blue hTLR7 cells (HEK293-derived, own knowledge)
T2 sequence (Q9NYK1 27-1049): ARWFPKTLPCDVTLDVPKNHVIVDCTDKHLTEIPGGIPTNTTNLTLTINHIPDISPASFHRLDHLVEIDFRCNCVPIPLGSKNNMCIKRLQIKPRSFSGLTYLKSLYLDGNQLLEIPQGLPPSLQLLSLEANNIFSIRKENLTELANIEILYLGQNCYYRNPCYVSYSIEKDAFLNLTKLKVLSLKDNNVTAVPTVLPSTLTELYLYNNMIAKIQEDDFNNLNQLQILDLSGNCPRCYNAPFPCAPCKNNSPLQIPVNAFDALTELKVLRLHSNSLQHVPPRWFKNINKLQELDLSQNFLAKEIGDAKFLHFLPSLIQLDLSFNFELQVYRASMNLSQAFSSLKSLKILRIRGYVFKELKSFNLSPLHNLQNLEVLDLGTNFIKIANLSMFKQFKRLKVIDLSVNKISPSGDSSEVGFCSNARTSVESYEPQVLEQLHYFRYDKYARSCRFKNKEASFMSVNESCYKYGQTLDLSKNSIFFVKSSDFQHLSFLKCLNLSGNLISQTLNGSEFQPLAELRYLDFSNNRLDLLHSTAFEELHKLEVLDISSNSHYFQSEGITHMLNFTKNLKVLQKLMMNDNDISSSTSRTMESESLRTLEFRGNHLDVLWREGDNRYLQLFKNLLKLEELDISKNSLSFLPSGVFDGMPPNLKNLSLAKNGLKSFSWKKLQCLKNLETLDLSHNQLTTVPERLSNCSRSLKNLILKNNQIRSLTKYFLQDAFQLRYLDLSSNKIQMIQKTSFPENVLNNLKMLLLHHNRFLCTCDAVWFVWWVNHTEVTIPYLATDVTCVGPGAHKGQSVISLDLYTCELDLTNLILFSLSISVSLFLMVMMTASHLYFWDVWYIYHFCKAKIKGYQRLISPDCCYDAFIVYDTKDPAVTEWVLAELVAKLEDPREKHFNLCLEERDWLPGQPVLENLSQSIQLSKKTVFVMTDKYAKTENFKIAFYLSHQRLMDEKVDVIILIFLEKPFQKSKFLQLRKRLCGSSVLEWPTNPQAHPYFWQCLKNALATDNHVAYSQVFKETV
In short: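 HEK-Blue hTLR7 reporter cells (20,000/well) incubated 16 h at 37 °C with 10-point 3-fold compound dilutions; SEAP read by absorbance at 620 nm. Effects normalized between CL097 (6 μM) and DMSO controls; EC50 from 4-parameter fit.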

Row | Structure (SMILES) | EC50 (hTLR8) [nM] | EC50 (hTLR7) [nM]
1 | CCCCNc1nc(N)nc2cn(Cc3ccc(N4CC5(CN(CCN6C(=O)C=CC6=O)C5)C4)cc3OC)nc12 [Compound 125] | 18700 | 1740
2 | CCCC(Nc1nc(N)nc2cn(Cc3c(OC)cccc3OC)nc12)C(F)(F)F (stereo not shown) [Compound 126] | > 9980 | 707
3 | CCCCNc1nc(N)nc2cn(Cc3ccc(CN4CC(CN5C(=O)C=CC5=O)C4)cc3OC)nc12 [Compound 127] | 3300 | 1240
4 | CCCCNc1nc(N)nc2cn(Cc3ncc(NCCCN)cc3OC)nc12 [Compound 129] | 1360 | 293
5 | CCCCNc1nc(N)nc2cn(Cc3cccc(N4CCNCC4)c3OC)nc12 [Compound 132] | 1490 | 708
6 | CCCCNc1nc(N)nc2cn(Cc3c(OC)cc(NCCN4C(=O)C=CC4=O)cc3OC)nc12 [Compound 134] | 14400 | 1520
7 | CCCC(Nc1nc(N)nc2cn(Cc3c(OC)cccc3OC)nc12)C(F)F (stereo not shown) [Compound 135] | > 9980 | 343
8 | CCCC(Nc1nc(N)nc2cn(Cc3c(OC)cccc3OC)nc12)C(F)F (stereo not shown) [Compound 136] | 1340 | 174
9 | CCCCNc1nc(N)nc2cn(Cc3ccc(C4CCNCC4)nc3OC)nc12 [Compound 138] | 1780 | 191
10 | CCCCNc1nc(N)nc2cn(Cc3nocc3C)nc12 [Compound 140] | 1720 | 252
11 | CCCCNc1nc(N)nc2cn(Cc3ccc(CN)cn3)nc12 [Compound 142] | 3220 | 354
12 | CCCCNc1nc(N)nc2cn(Cc3cc(OC)c(CN(C)CCCN4C(=O)C=CC4=O)cc3OC)nc12 [Compound 143] | > 3330 | 360
13 | CCCCNc1nc(N)nc2cn(Cc3ccc(NCCCN)cn3)nc12 [Compound 144] | 3810 | 170
14 | CCCCNc1nc(N)nc2cn(Cc3ccc(CN4CC(CNC)C4)cc3OC)nc12 [Compound 145] | 6320 | 2270

These reach a lower EC50 (hTLR8). Values come first.

Row | EC50 (hTLR8) [nM] | EC50 (hTLR7) [nM] | Structure (SMILES)
15 | 633 | 95.2 | CCCCNc1nc(N)nc2cn(Cc3ccc(CCO)cc3OC)nc12 [Compound 128]
16 | 734 | 370 | CCC[C@@H](CO)Nc1nc(N)nc2cn(Cc3ccccc3OC)nc12 [Compound 130]
17 | 1250 | 680 | CCCCNc1nc(N)nc2cn(Cc3ccc(CN4CCNCC4)cc3OC)nc12 [Compound 131]
18 | 161 | 114 | CCC[C@@H](CO)Nc1nc(N)nc2cn(Cc3ncccc3OC)nc12 [Compound 133]
19 | 692 | 439 | CCCCNc1nc(N)nc2cn(Cc3ccc(CN)cc3OC)nc12 [Compound 137]
20 | 942 | 717 | CCCCNc1nc(N)nc2cn(Cc3ccc(CCN)cc3OC)nc12 [Compound 139]
21 | 413 | 409 | CCCCNc1nc(N)nc2cn(Cc3c(OC)cc(CN(C)CCCN)cc3OC)nc12 [Compound 141]
22 | 637 | 628 | CCCCNc1nc(N)nc2cn(Cc3cc(CN)ccc3OC)nc12 [Compound 146]
23 | 265 | 180 | CCCCNc1nc(N)nc2cn(Cc3ccc(CCNC)cc3OC)nc12 [Compound 147]
